According to US20160193240A1, “Ulmoside-A: Useful For Prevention Or Cure Of Metabolic Diseases” (COUNCIL OF SCIENTIFIC & INDUSTRIAL RESEARCH, priority 2013, published 2016):

What was measured:
[1] = tested on: wistar rats; assay: Dexamethasone-mediated reduction of food intake in rats; assay type: in vivo, rat; conditions: Dex alone 200 μg/kg IP
Description: Six to eight week old wistar rats (n=6 per group) were housed separately and treated as indicated in the example. Daily food intake was measured and plotted. […] Data represents mean+/−SEM.
(§1) Blood was collected from cardiac punctures.
Food intake was measured every alternate day by giving measured food to each cage in evening (5.00 PM) and collection of residual food in next morning (9.00 AM) and measuring it. The residual food was subtracted from the food given and plotted.

[2] = tested on: wistar rats; assay: Dexamethasone-mediated reduction in serum osteocalcin in rats (ELISA); assay type: in vivo, rat; conditions: Dex alone, 14 days
Description: (§2) Food intake was measured daily and the rats were weighed each week. The rats were fasted overnight (O/N) on day 14th and on day 15th oral glucose tolerance test was performed. Following oral glucose tolerance test (OGTT), rats were kept with food and water ad libitum for one day. On day 16th, rats were fasted again O/N and then euthanized. At autopsy, from 5 animals/group, tissues were collected and snap frozen in liquid nitrogen. Blood was collected from cardiac punctures. Plasma was separated from whole blood by centrifugation at 3000 rpm for 20 min immediately after collection of blood and stored at −80° C. until further analysis. […] (quadriceps) skeletal muscles were processed for RNA and protein extraction, followed by quantitative real-time PCR (QRT-PCR) analysis. Two animals from each group were used for photography post autopsy.

[3] = tested on: wistar rats; assay: Dexamethasone-mediated imbalance in serum Na, K level in rats; assay type: in vivo, rat; conditions: Dex + Vehicle, 14 days
Description: Food intake was measured daily and the rats were weighed each week. The rats were fasted overnight (O/N) on day 14th and on day 15th oral glucose tolerance test was performed. Following oral glucose tolerance test (OGTT), rats were kept with food and water ad libitum for one day. On day 16th, rats were fasted again O/N and then euthanized. At autopsy, from 5 animals/group, tissues were collected and snap frozen in liquid nitrogen. Blood was collected from cardiac punctures. Plasma was separated from whole blood by centrifugation at 3000 rpm for 20 min immediately after collection of blood and stored at −80° C. until further analysis. Forelimb (quadriceps) skeletal muscles were processed for RNA and protein extraction, followed by quantitative real-time PCR (QRT-PCR) analysis. Two animals from each group were used for photography post autopsy.

[4] = tested on: wistar rats; assay: Dexamethasone induced loss of body weight and death in rats; conditions: Dex alone (200 μg/kg IP), 2 weeks
Description: All animal experiments were conducted in accordance with current legislation on animal experiments [Institutional Animal Ethical Committee (IAEC)] at C.D.R.I. In all animal experiments, rats were individually housed at 21° C., in 12-h light:12-h dark cycles. All animals had access to normal chow diet and water ad libitum.
as §2

[5] = tested on: wistar rats; assay: Dexamethasone-induced skeletal muscle atrophy in rats (limb appearance, QRT-PCR of PGC-1α and atrogenes); assay type: in vivo, rat; conditions: Dex alone
Description: Following 15 d indicated treatment of rats, the skeletal muscle (pulled hind limb) were collected and RNA was extracted from them and QRT-PCR was performed in a Roche lightcycler 480 machine. Data represents mean+/−SEM from six animals done in triplicates. “a” statistical analysis between Vehicle and Dexamethasone-treated groups, “b”, statistical analysis between dex-treated and dex+ ULMA groups. P<0.05, as determined by student's t-test, n=6.
as §1
RNA was isolated from skeletal muscles using Trizol (according to manufacturers' protocol) and reverse transcribed as described above and either PGC-1α expression or muscle atrophy related genes (atrogenes) expression were examined.

[6] = tested on: GAL-PPARα; assay: PPARα activation assay (GAL-PPARα / GAL4-Luc reporter) in HEK293 cells expressing endogenous AdipoR1; assay type: cell-based, human; conditions: 100 pM GW-7647 alone, 6 hours, HEK293
Description: A. ULMA enhances PPARα ligand activity; HEK293 cells were seeded on to 24 well plates and after 24 h, transfected with 100 ng of GAL-PPARα and 100 ng GAL4-Luc along with 100 ng eGFPC1 (Clontech) plasmids using lipofectamine LTX (Invitrogen) according to manufacturer's instructions. 24 h after transfection, cells were treated with or without 100 pM GW-7647 alone or in combination with 100 nM ULMA or 1 μg/ml globular adiponectin (gAd) for 6 h. Following which, the cells were lysed and GFP fluorescence and firefly luciferase activities were measured. Luciferase activity was normalized with GFP fluorescence and plotted as fold activity over vehicle (0.1% DMSO) treated control. Data shown in mean±SEM of three independent experiments performed in duplicates. *p<0.05 as determined by two tailed unpaired student's t-test.
The potential of ULMA to activate adiponectin receptor signaling was evaluated using a PPARα activation assay. […] 24 hours following plating, these cells were transfected with 100 ng of GAL-PPARα (PPARα cDNA fused with GAL4 DNA binding domain) and 100 ng GAL4 upstream activation sequence driven luciferase (GAL4-Luc) reporter gene that is capable of binding to any protein fused to GAL4-DNA binding domain (in this case GAL-PPARα) and 100 ng Green fluorescence expressing plasmid (GFP) that was used as an internal control, using lipofectamine LTX transfection reagent (Invitrogen) according to manufacturers' instructions. […] The cells were then lysed and luciferase activity was measured in a Promega GloMax luminometer using steady Glo luciferase assay kit (Promega) according to manufacturers' instructions; and GFP fluorescence was measured in a fluorimeter (Polarstar Galaxy, BMG Labtech). […]

C[C@@H]1C[C@H]2[C@@H]3CCC4=CC(=O)C=C[C@]4(C)[C@@]3(F)[C@@H](O)C[C@]2(C)[C@@]1(O)C(=O)CO [Dex, Dexamethasone, reference compound]
food intake [1]: robust loss in food-intake | Osteocalcin [2]: 263.5 ± 6.4 ng/mL | K [3]: 3.47 ± 0.13 mM | Survival/group (%) [4]: 46.7% | appearance of denuded forelimb and hindlimb [5]: severe abnormality in the limbs | mRNA levels of atrogenes (Atrogin-1/MAFbx, MuRF1, Cathepsin L, Glul) in skeletal muscle [5]: robustly induced

CC(C)(Sc1ccc(CCN(CCCCC2CCCCC2)C(=O)NC2CCCCC2)cc1)C(=O)O [GW-7647, reference compound]
increase of luciferase activity over vehicle-treated controls [6]: 2 folds
